{"source": "paper PMC13372681", "about": "“A natural depsipeptide antibiotic binds the E-site of the bacterial ribosome” (Nature, 2026)", "key": {"M. tuberculosis H37Ra": {"tested_on": "M. tuberculosis H37Ra", "conditions": "Middlebrook 7H9 + 10% OADC + 0.05% Tween-80"}, "S. enterica ATCC 14028": {"tested_on": "S. enterica ATCC 14028", "conditions": "broth microdilution, Ca+ MHB Medium"}, "E. coli C1507": {"tested_on": "E. coli C1507", "conditions": "broth microdilution, Ca+ MHB Medium; MDR clinical isolate"}, "[1]": {"tested_on": "Bacteroides fragilis GC73", "experiment": "MIC, anaerobic gut bacteria", "format": "cell-based", "conditions": "gut isolate, BHI + L-cysteine, haemin, vitamin K, 37 °C"}, "[2]": {"experiment": "Acute tolerability in mice", "format": "in vivo", "conditions": "doses up to 220 mg kg^−1 per day (divided into four doses over 20 hours, subcutaneous)"}, "E. coli ΔtolC ΔbamB": {"tested_on": "E. coli ΔtolC ΔbamB", "conditions": "broth microdilution"}, "[3]": {"conditions": "human plasma 1:1 with PBS pH 7.4, 10 µM, 37 °C, 0–120 min, LC–MS, % remaining; duplicate, two biological replicates"}, "[4]": {"conditions": "mouse plasma 1:1 with PBS pH 7.4, 10 µM, 37 °C, 0–120 min, LC–MS, % remaining; duplicate, two biological replicates"}, "[5]": {"tested_on": "M. bovis BCG Pasteur ATCC 35734", "conditions": "Middlebrook 7H9 + 10% OADC + 0.05% Tween-80"}, "[6]": {"tested_on": "Clostridium perfringens GC1584", "conditions": "gut isolate; BHI + L-cysteine, haemin, vitamin K, anaerobic, 37 °C"}, "[7]": {"tested_on": "Candida albicans ATCC 90028"}, "HepG2 cells": {"tested_on": "HepG2 cells", "experiment": "Mammalian cytotoxicity, Cell Titer Glo", "format": "cell-based, human", "conditions": "48 h exposure, DMEM + 10% FBS, 1% DMSO, Cell Titer Glo 2.0 luminescence", "method": "(§1) Mammalian culture was performed in Dulbecco Modified Eagle Medium (DMEM) supplemented with 10% fetal bovine serum (FBS), 2 mM L-glutamine, 100 units ml^−1 penicillin and 100 µg ml^−1 streptomycin. HEK293 cells (ATCC CRL-1573; generation 6) were seeded at 7,500 cells per well and HepG2 cells (ATCC HB8065; generation 18) were seeded at 4,000 cells per well in 384-well tissue culture-treated white plates in 50 µl DMEM and incubated for 18 h at 37 °C in the presence of 5% CO2. After 18 h of incubation, 500 nl of the compound and DMSO (1% final concentration) were added to the cells using a Labcyte Echo acoustic dispenser (Beckman Coulter). Cells were further incubated for 48 h and after that cell viability was assessed using Promega Cell Titer Glo 2.0 reagent (Fisher Scientific). Before incubating the plates at room temperature for 10 min, 50 µl of Cell Titer Glo was added directly to the medium. The plates were then shaken for 2 min. The Neo2 plate reader (Biotek) was used to read the luminescence through luminescent fibre. Cells that were either not treated or solely treated with DMSO were used as a control."}, "HEK293 cells": {"tested_on": "HEK293 cells", "experiment": "Mammalian cytotoxicity, Cell Titer Glo", "format": "cell-based, human", "conditions": "48 h exposure, DMEM + 10% FBS, 1% DMSO, Cell Titer Glo 2.0 luminescence", "method": "as §1"}, "[8]": {"tested_on": "Lactobacillus plantarum GC4", "experiment": "MIC, anaerobic gut bacteria", "format": "cell-based", "conditions": "gut isolate, BHI + L-cysteine, haemin, vitamin K, 37 °C"}, "in vivo": {"experiment": "in vivo", "conditions": "female, ICR CD-1, mouse, plasma, sc; for level at 8 h / level at 24 h: below limit of quantification"}, "Red blood cells (RBCs)": {"tested_on": "Red blood cells (RBCs)", "experiment": "Haemolysis assay", "format": "cell-based", "conditions": "human RBCs 1:50 in PBS pH 7.4, 37 °C, 1 h, absorbance 540 nm", "method": "Human blood was obtained from BioIVT (USA). Red blood cells (RBCs) were separated from blood by centrifugation at 500g for 5 min. Plasma was removed and the RBCs were washed twice with 150 mM NaCl, using a volume equivalent to the removed plasma. After washing, phosphate-buffered saline (PBS) with a pH of 7.4, in a volume equal to the removed plasma, was added to create the RBC suspension. Using a Labcyte Echo acoustic dispenser (Beckman Coulter), 1 µl of the compound was added to the wells of a 96-well V-bottom plate. The final concentration of DMSO was kept at 1% (v/v), with a DMSO-only negative control included in each replicate. For the positive control, 10 µl of Triton X-100 was added, starting at a concentration of 20% and serially diluted twofold to 0.02%. RBCs were diluted 1:50 in PBS (pH 7.4), and 99 µl of this diluted solution was added to each well. The plates were incubated at 37 °C for 1 h, then centrifuged at 500g for 5 min to pellet the intact RBCs. Sixty-five microlitres of the supernatant was transferred to a clear, flat-bottom 96-well plate, and the absorbance was measured at 540 nm."}, "[9]": {"tested_on": "Bifidobacterium breve GC96", "experiment": "MIC, anaerobic gut bacteria", "format": "cell-based", "conditions": "gut isolate, BHI + L-cysteine, haemin, vitamin K, 37 °C"}, "[10]": {"conditions": "broth microdilution, Ca+ MHB Medium"}, "[11]": {"conditions": "50 mg/kg, Plasma concentration MKM, s.c. 50 mg/kg, Mouse 2"}, "[12]": {"conditions": "50 mg/kg, Plasma concentration MKM, s.c. 50 mg/kg, Mouse 3"}, "[13]": {"conditions": "50 mg/kg, Plasma concentration MKM, s.c. 50 mg/kg, Mouse 1"}}, "note": "Read-outs that look alike come from different tables or passages of the source. Where a SMILES comes first, the peptide text is derived from it. Bridges are numbered along the chain shown (N, C = ends). [ ]: non-standard residue; d: D form. dOrn = NCCC[C@@H](N)C(=O)O"}
{"smiles": "C[C@@H](O)[C@@H]1NC(=O)[C@@H](CCCNC(=N)N)NC(=O)[C@@H](CCCNC(=N)N)NC(=O)[C@@H](CC(N)=O)NC(=O)[C@@H](NC(=O)[C@@H](Cc2ccccc2)NC(=O)[C@@H](CCCN)NC(=O)[C@H](N)CCCNC(=N)N)[C@@H](C)OC(=O)[C@H](Cc2c[nH]cn2)NC1=O", "note": "[MKM-A, manikomycin] (H-[dR][dOrn][dF]T[dN][dR][dR]TH; ester 4-C)", "values": [{"measurement": "MIC", "setting": "M. tuberculosis H37Ra", "result": 4, "unit": "µg/mL"}, {"measurement": "MIC", "setting": "S. enterica ATCC 14028", "result": 32, "unit": "µg/mL"}, {"measurement": "MIC", "setting": "K. pneumoniae C1459; C1459", "result": 8, "unit": "µg/mL"}, {"measurement": "MIC", "setting": "K. pneumoniae C1459; broth microdilution, Ca+ MHB Medium, MDR clinical isolate", "result": 32, "unit": "µg/mL"}, {"measurement": "MIC", "setting": "E. coli C1507", "result": 32, "unit": "µg/mL"}, {"measurement": "MIC", "setting": "P. aeruginosa PAO1; PAO1", "result": ">64", "unit": "µg/mL"}, {"measurement": "MIC", "setting": "P. aeruginosa PAO1; [10]", "result": ">128", "unit": "µg/mL"}, {"measurement": "MIC", "setting": "P. aeruginosa PAO1; broth microdilution, MOPS Minimal Medium", "result": ">128", "unit": "µg/mL"}, {"measurement": "MIC", "setting": "[1]", "result": ">256", "unit": "µg/mL"}, {"measurement": "acute tolerability", "setting": "[2]", "result": "acceptable acute tolerability"}, {"measurement": "MIC", "setting": "E. coli ΔtolC ΔbamB; Ca+ MHB Medium", "result": 8, "unit": "µg/mL"}, {"measurement": "MIC", "setting": "E. coli ΔtolC ΔbamB; MOPS Minimal Medium", "result": 2, "unit": "µg/mL"}, {"measurement": "MIC", "setting": "E. coli ΔtolC ΔbamB; RPMI Medium", "result": 2, "unit": "µg/mL"}, {"measurement": "stability in plasma", "setting": "[3]", "result": "excellent stability"}, {"measurement": "MIC", "setting": "E. coli BW25113; BW25113", "result": 4, "unit": "µg/mL"}, {"measurement": "MIC", "setting": "E. coli BW25113; broth microdilution, Ca+ MHB Medium (cation-adjusted MHB)", "result": 32, "unit": "µg/mL"}, {"measurement": "stability in plasma", "setting": "[4]", "result": "excellent stability"}, {"measurement": "MIC", "setting": "[5]", "result": 2, "unit": "µg/mL"}, {"measurement": "MIC", "setting": "Bacillus subtilis 168", "result": ">64", "unit": "µg/mL"}, {"measurement": "MIC", "setting": "S. aureus ATCC 29213", "result": 64, "unit": "µg/mL"}, {"measurement": "MIC", "setting": "[6]", "result": ">256", "unit": "µg/mL"}, {"measurement": "MIC", "setting": "[7]", "result": ">64", "unit": "µg/mL"}, {"measurement": "HepG2 (IC50)", "setting": "HepG2 cells", "result": ">256", "unit": "µg/mL"}, {"measurement": "HEK 293 (IC50)", "setting": "HEK293 cells", "result": ">256", "unit": "µg/mL"}, {"measurement": "MIC", "setting": "[8]", "result": ">256", "unit": "µg/mL"}, {"measurement": "Cmax", "setting": "in vivo; 50 mg kg^−1", "result": 9130, "unit": "ng/mL"}, {"measurement": "half-life", "setting": "in vivo; 50 mg kg^−1", "result": "~36", "unit": "min"}, {"measurement": "level at 0.25 h", "setting": "in vivo; 50 mg/kg, Plasma concentration MKM, s.c. 50 mg/kg, Mouse 1, linear range 1.6–50 µg/ml", "result": 6650, "unit": "ng/mL"}, {"measurement": "level at 0.25 h", "setting": "in vivo; [11]", "result": 8580, "unit": "ng/mL"}, {"measurement": "level at 0.25 h", "setting": "in vivo; [12]", "result": 9540, "unit": "ng/mL"}, {"measurement": "level at 0.5 h", "setting": "in vivo; 50 mg/kg, Plasma concentration MKM, s.c. 50 mg/kg, Time 0.5 (h), Mouse 3", "result": 9170, "unit": "ng/mL"}, {"measurement": "level at 1 h", "setting": "in vivo; [13]", "result": 6890, "unit": "ng/mL"}, {"measurement": "level at 1 h", "setting": "in vivo; [11]", "result": 9080, "unit": "ng/mL"}, {"measurement": "level at 1 h", "setting": "in vivo; [12]", "result": 6930, "unit": "ng/mL"}, {"measurement": "level at 2 h", "setting": "in vivo; [13]", "result": 1470, "unit": "ng/mL"}, {"measurement": "level at 2 h", "setting": "in vivo; [11]", "result": 1060, "unit": "ng/mL"}, {"measurement": "level at 2 h", "setting": "in vivo; [12]", "result": 2600, "unit": "ng/mL"}, {"measurement": "level at 8 h", "setting": "in vivo; [13]", "result": 386, "unit": "ng/mL"}, {"measurement": "level at 8 h", "setting": "in vivo; [11]", "result": 55.8, "unit": "ng/mL"}, {"measurement": "level at 8 h", "setting": "in vivo; [12]", "result": 108, "unit": "ng/mL"}, {"measurement": "level at 24 h", "setting": "in vivo; [13]", "result": 71.5, "unit": "ng/mL"}, {"measurement": "level at 24 h", "setting": "in vivo; [11]", "result": 27.3, "unit": "ng/mL"}, {"measurement": "level at 24 h", "setting": "in vivo; [12]", "result": 68, "unit": "ng/mL"}, {"measurement": "Haemolysis (256 μg/ml)", "setting": "Red blood cells (RBCs)", "result": "<1", "unit": "%"}, {"measurement": "MIC", "setting": "[9]", "result": 256, "unit": "µg/mL"}, {"measurement": "MIC", "setting": "A. baumanii ATCC 17978; ATCC 17978", "result": 64, "unit": "µg/mL"}, {"measurement": "MIC", "setting": "A. baumanii ATCC 17978; [10]", "result": ">128", "unit": "µg/mL"}]}
